Drawing on the NIST ThermoML archive (doi:10.1016/j.jct.2012.03.015), this text covers activity coefficient for 25 compounds.

± gives the expanded uncertainty stated by the source.

A short description of one data set: activity coefficient (dimensionless); of the first substance listed, at infinite dilution; xn = mol fraction of the nth substance listed. To be noted: 328.15 K; 101 kPa; Liquid; Chromatography; x1 = 0.
`CC#N` [acetonitrile] + COCC[N+]1(C)CCCC1.O=S(=O)([N-]S(=O)(=O)C(F)(F)F)C(F)(F)F: the activity coefficient worked out at 0.469 ± 0.037.

As for `C=CCCCCCCCC` [1-decene] + COCC[N+]1(C)CCCC1.O=S(=O)([N-]S(=O)(=O)C(F)(F)F)C(F)(F)F, the activity coefficient amounted to 39 ± 2.7.

Turning to `CCCOCCC` [dipropyl ether] + COCC[N+]1(C)CCCC1.O=S(=O)([N-]S(=O)(=O)C(F)(F)F)C(F)(F)F, the activity coefficient was found to be 7.03 ± 0.48.

With `Cc1ccc(C)cc1` [1,4-dimethylbenzene] + COCC[N+]1(C)CCCC1.O=S(=O)([N-]S(=O)(=O)C(F)(F)F)C(F)(F)F, the activity coefficient was 2.17 ± 0.15.

On to `C1CCOC1` [tetrahydrofuran] + COCC[N+]1(C)CCCC1.O=S(=O)([N-]S(=O)(=O)C(F)(F)F)C(F)(F)F, for which the activity coefficient came out at 0.83 ± 0.05.

On to `CCC[N+](=O)[O-]` [1-nitropropane] + COCC[N+]1(C)CCCC1.O=S(=O)([N-]S(=O)(=O)C(F)(F)F)C(F)(F)F, for which the activity coefficient amounted to 0.742 ± 0.049.

On to `C=C(C)c1ccccc1` [(1-methylethenyl)benzene] + COCC[N+]1(C)CCCC1.O=S(=O)([N-]S(=O)(=O)C(F)(F)F)C(F)(F)F, for which the activity coefficient is 1.93 ± 0.13.

In the case of `CCOC(C)=O` [ethyl acetate] + COCC[N+]1(C)CCCC1.O=S(=O)([N-]S(=O)(=O)C(F)(F)F)C(F)(F)F, the activity coefficient came out at 0.97 ± 0.06.

In the case of `c1ccsc1` [thiophene] + COCC[N+]1(C)CCCC1.O=S(=O)([N-]S(=O)(=O)C(F)(F)F)C(F)(F)F, the activity coefficient is 0.897 ± 0.057.

For `C=CCCCCCC` [oct-1-ene] + COCC[N+]1(C)CCCC1.O=S(=O)([N-]S(=O)(=O)C(F)(F)F)C(F)(F)F, the activity coefficient stood at 19.5 ± 1.3.

Consider `CCCCCCC` [heptane] + COCC[N+]1(C)CCCC1.O=S(=O)([N-]S(=O)(=O)C(F)(F)F)C(F)(F)F, for which the activity coefficient turned out to be 25.9 ± 1.8.

With `C#CCCCCCC` [1-octyne] + COCC[N+]1(C)CCCC1.O=S(=O)([N-]S(=O)(=O)C(F)(F)F)C(F)(F)F, the activity coefficient came out at 6.73 ± 0.46.

With `C=CCCCCC` [1-heptene] + COCC[N+]1(C)CCCC1.O=S(=O)([N-]S(=O)(=O)C(F)(F)F)C(F)(F)F, the activity coefficient worked out at 13.4 ± 0.9.

The data set is the same for the next values; noted with them: 338.15 K; 101 kPa; Liquid; Chromatography; x1 = 0.
For `CCCC=O` [butanal] + COCC[N+]1(C)CCCC1.O=S(=O)([N-]S(=O)(=O)C(F)(F)F)C(F)(F)F, the activity coefficient stood at 0.838 ± 0.054.

Consider `CCCCC` [pentane] + COCC[N+]1(C)CCCC1.O=S(=O)([N-]S(=O)(=O)C(F)(F)F)C(F)(F)F, for which the activity coefficient amounted to 12.1 ± 0.8.

For the compound `CC(C)CO` [2-methyl-1-propanol] + COCC[N+]1(C)CCCC1.O=S(=O)([N-]S(=O)(=O)C(F)(F)F)C(F)(F)F, the activity coefficient came to 2.2 ± 0.15.

With `C1COCCO1` [1,4-dioxane] + COCC[N+]1(C)CCCC1.O=S(=O)([N-]S(=O)(=O)C(F)(F)F)C(F)(F)F, the activity coefficient was found to be 0.7 ± 0.05.

Regarding `CCC(=O)OC` [methyl propanoate] + COCC[N+]1(C)CCCC1.O=S(=O)([N-]S(=O)(=O)C(F)(F)F)C(F)(F)F, the activity coefficient was 0.96 ± 0.06.

As for `CCCCO` [butan-1-ol] + COCC[N+]1(C)CCCC1.O=S(=O)([N-]S(=O)(=O)C(F)(F)F)C(F)(F)F, the activity coefficient was determined as 2.35 ± 0.16.

In the case of `CCC(C)(C)OC` [2-methoxy-2-methylbutane] + COCC[N+]1(C)CCCC1.O=S(=O)([N-]S(=O)(=O)C(F)(F)F)C(F)(F)F, the activity coefficient stood at 4.05 ± 0.28.

In the case of `CCCCCCCC` [octane] + COCC[N+]1(C)CCCC1.O=S(=O)([N-]S(=O)(=O)C(F)(F)F)C(F)(F)F, the activity coefficient came to 33.9 ± 2.3.

Take `CCO` [ethanol] + COCC[N+]1(C)CCCC1.O=S(=O)([N-]S(=O)(=O)C(F)(F)F)C(F)(F)F: the activity coefficient is 1.48 ± 0.1.

As for `CCC(C)O` (stereo not drawn) [butan-2-ol] + COCC[N+]1(C)CCCC1.O=S(=O)([N-]S(=O)(=O)C(F)(F)F)C(F)(F)F, the activity coefficient came to 2 ± 0.14.

For the compound `CCc1ccccc1` [ethylbenzene] + COCC[N+]1(C)CCCC1.O=S(=O)([N-]S(=O)(=O)C(F)(F)F)C(F)(F)F, the activity coefficient amounted to 2.24 ± 0.15.

For `C1=CCCCC1` [cyclohexene] + COCC[N+]1(C)CCCC1.O=S(=O)([N-]S(=O)(=O)C(F)(F)F)C(F)(F)F, the activity coefficient is 5.63 ± 0.38.

On to `CC#N` [acetonitrile] + COCC[N+]1(C)CCCC1.O=S(=O)([N-]S(=O)(=O)C(F)(F)F)C(F)(F)F, for which the activity coefficient is 0.472 ± 0.037.

Turning to `C=CCCCCCCCC` [1-decene] + COCC[N+]1(C)CCCC1.O=S(=O)([N-]S(=O)(=O)C(F)(F)F)C(F)(F)F, the activity coefficient was 36.4 ± 2.5.

For the compound `CCCOCCC` [dipropyl ether] + COCC[N+]1(C)CCCC1.O=S(=O)([N-]S(=O)(=O)C(F)(F)F)C(F)(F)F, the activity coefficient is 6.82 ± 0.46.

Turning to `Cc1ccc(C)cc1` [1,4-dimethylbenzene] + COCC[N+]1(C)CCCC1.O=S(=O)([N-]S(=O)(=O)C(F)(F)F)C(F)(F)F, the activity coefficient is 2.18 ± 0.15.

As for `C1CCOC1` [tetrahydrofuran] + COCC[N+]1(C)CCCC1.O=S(=O)([N-]S(=O)(=O)C(F)(F)F)C(F)(F)F, the activity coefficient was 0.84 ± 0.05.

On to `CCC[N+](=O)[O-]` [1-nitropropane] + COCC[N+]1(C)CCCC1.O=S(=O)([N-]S(=O)(=O)C(F)(F)F)C(F)(F)F, for which the activity coefficient amounted to 0.743 ± 0.049.

With `C=C(C)c1ccccc1` [(1-methylethenyl)benzene] + COCC[N+]1(C)CCCC1.O=S(=O)([N-]S(=O)(=O)C(F)(F)F)C(F)(F)F, the activity coefficient came out at 1.98 ± 0.13.

For the compound `CCOC(C)=O` [ethyl acetate] + COCC[N+]1(C)CCCC1.O=S(=O)([N-]S(=O)(=O)C(F)(F)F)C(F)(F)F, the activity coefficient was 0.98 ± 0.06.

For the compound `c1ccsc1` [thiophene] + COCC[N+]1(C)CCCC1.O=S(=O)([N-]S(=O)(=O)C(F)(F)F)C(F)(F)F, the activity coefficient was 0.909 ± 0.058.

With `C=CCCCCCC` [oct-1-ene] + COCC[N+]1(C)CCCC1.O=S(=O)([N-]S(=O)(=O)C(F)(F)F)C(F)(F)F, the activity coefficient was 18.2 ± 1.2.

In the case of `CCCCCCC` [heptane] + COCC[N+]1(C)CCCC1.O=S(=O)([N-]S(=O)(=O)C(F)(F)F)C(F)(F)F, the activity coefficient was 24.2 ± 1.7.

Regarding `C#CCCCCCC` [1-octyne] + COCC[N+]1(C)CCCC1.O=S(=O)([N-]S(=O)(=O)C(F)(F)F)C(F)(F)F, the activity coefficient turned out to be 6.58 ± 0.45.

Turning to `C=CCCCCC` [1-heptene] + COCC[N+]1(C)CCCC1.O=S(=O)([N-]S(=O)(=O)C(F)(F)F)C(F)(F)F, the activity coefficient was found to be 12.9 ± 0.9.
